Patent publication US8754054B2, “Antibacterial compounds, methods of making them, and uses thereof” (Albany Molecular Research, Inc., priority 2010, dated 2014)

Key:
Assay in all cases: Antibacterial activity in vitro, NCCLS dilution method (Table 10)
Assay type in all cases: cell-based
[1] = tested on: H. parainfluenzae 2319 (ATCC 7901); details: Gram −
Description: (§1) NCCLS standards for antimicrobial susceptibility testing using the dilution method were followed. See: Performance Standards for Antimicrobial Susceptibility Testing; Fourteenth Informational Supplement. NCCLS Document M100-S14 (ISBN 1-56238-516-X), 2004. NCCLS, 940 West Valley Road, Suite 1400, Wayne, Pa. 19087-1898 USA, 2004; Methods for Dilution Antimicrobial Susceptibility Tests for Bacteria that Grow Aerobically; Approved Standard—Sixth Edition. NCCLS document M7-A6 (IBSBN 1-56238-486-4), NCCLS, 940 West Valley Road, Suite 1400, Wayne, Pa. 19087-1898 USA, 2003, which are hereby incorporated by reference in their entirety.

H. influenzae 1742 = details: H. influenzae 1742, Gram −, ampR
Description: as §1

S. aureus (ATCC 6538) = details: Gram +, MSSA
Description: as §1

S. aureus 1651 = details: S. aureus 1651, Gram +, LRSA
Description: as §1

[2] = tested on: P. aeruginosa (ATCC 27853); details: Gram −
Description: as §1

S. pyogenes 723 = details: S. pyogenes 723, Gram +
Description: as §1

E. faecium 700221 = details: E. faecium 700221, Gram +, VRE
Description: as §1

S. pneumoniae 376 = details: S. pneumoniae 376, Gram +, Quin-R
Description: as §1

S. aureus (ATCC 29213) = details: Gram +, MSSA
Description: as §1

E. faecalis 846 = details: E. faecalis 846, Gram +, VRE
Description: as §1

S. aureus (ATCC 43300) = details: Gram +, MRSA
Description: as §1

S. aureus 2144 = details: S. aureus 2144, Gram +, CA, USA 300 Strain
Description: as §1

S. pneumoniae 975 = details: S. pneumoniae 975, Gram +, PSSP
Description: as §1

S. pneumoniae 933 = details: S. pneumoniae 933, Gram +, MDR
Description: as §1

M. catarrhalis 557 = details: M. catarrhalis 557, Gram −
Description: as §1

S. marcescens 1635 = details: S. marcescens 1635, Gram −
Description: as §1

S. aureus 2018 = details: S. aureus 2018, Gram +, VISA
Description: as §1

S. epidermidis 1452 = details: S. epidermidis 1452, Gram +, MRSE
Description: as §1

S. agalactiae 2033 = details: S. agalactiae 2033, Gram +
Description: as §1

S. saprophyticus 495 = details: S. saprophyticus 495, Gram +
Description: as §1

K. pneumoniae 2239 = details: K. pneumoniae 2239, Gram −
Description: as §1

E. coli 2269 = details: E. coli 2269, Gram −, ESBL-producer
Description: as §1

S. aureus 2012 = details: S. aureus 2012, Gram +, VISA
Description: as §1

S. aureus 1725 = details: S. aureus 1725, Gram +, LRSA
Description: as §1

S. aureus 1137 = details: S. aureus 1137, Gram +, MRSA
Description: as §1

S. pneumoniae 940 = details: S. pneumoniae 940, Gram +, PRSP
Description: as §1

S. epidermidis 1597 = details: S. epidermidis 1597, Gram +, MSSE
Description: as §1

K. pneumoniae 2262 = details: K. pneumoniae 2262, Gram −, ampC, MDR
Description: as §1

E. coli 102 (ATCC 25922) = details: Gram −, QC strain
Description: as §1

SMILES | antibacterial activity (dilution susceptibility test) [1] | antibacterial activity (dilution susceptibility test) (H. influenzae 1742) | antibacterial activity (dilution susceptibility test) (S. aureus (ATCC 6538)) | antibacterial activity (dilution susceptibility test) (S. aureus 1651) | antibacterial activity (dilution susceptibility test) [2] | antibacterial activity (dilution susceptibility test) (E. faecium 700221) | antibacterial activity (dilution susceptibility test) (S. pneumoniae 376) | antibacterial activity (dilution susceptibility test) (S. aureus (ATCC 29213)) | antibacterial activity (dilution susceptibility test) (S. aureus (ATCC 43300)) | antibacterial activity (dilution susceptibility test) (S. pneumoniae 975) | antibacterial activity (dilution susceptibility test) (M. catarrhalis 557) | antibacterial activity (dilution susceptibility test) (S. marcescens 1635) | antibacterial activity (dilution susceptibility test) (K. pneumoniae 2239) | antibacterial activity (dilution susceptibility test) (E. coli 2269) | antibacterial activity (dilution susceptibility test) (S. aureus 2012) | antibacterial activity (dilution susceptibility test) (S. aureus 1725) | antibacterial activity (dilution susceptibility test) (S. aureus 1137) | antibacterial activity (dilution susceptibility test) (S. pneumoniae 940) | antibacterial activity (dilution susceptibility test) (K. pneumoniae 2262) | antibacterial activity (dilution susceptibility test) (E. coli 102 (ATCC 25922)) | also measured
COC(=O)c1c(C)cc2c(c1O)[C@]1(O)C(=O)c3cc4c(c(O)c3C(=O)[C@]1(OC)[C@H](O)C2)C(=O)C=C(N[C@H]1O[C@@H](C)[C@H](OC)[C@@H](O)[C@H]1OC)C4=O [Cmpd 12] | 8 | 4 | 0.008 | ≦0.06 | 32 | 0.06 | ≦0.06 | ≦0.06 | 0.008 | ≦0.06 | 0.12 | 64 | 64 | 32 | ≦0.06 | ≦0.06 | ≦0.06 | ≦0.06 | 64 | 32 | antibacterial activity (dilution susceptibility test) (S. pyogenes 723): ≦0.06; antibacterial activity (dilution susceptibility test) (E. faecalis 846): ≦0.06; antibacterial activity (dilution susceptibility test) (S. aureus 2144): ≦0.06; antibacterial activity (dilution susceptibility test) (S. pneumoniae 933): ≦0.06; antibacterial activity (dilution susceptibility test) (S. aureus 2018): ≦0.06; antibacterial activity (dilution susceptibility test) (S. epidermidis 1452): ≦0.06; antibacterial activity (dilution susceptibility test) (S. agalactiae 2033): ≦0.06; antibacterial activity (dilution susceptibility test) (S. saprophyticus 495): ≦0.06; antibacterial activity (dilution susceptibility test) (S. epidermidis 1597): ≦0.06
CC(=O)NC[C@H]1CN(c2ccc(N3CCOCC3)c(F)c2)C(=O)O1 [Linezolid] | 16 | 8 | 0.5 | – | >64 | 1 | 1 | 4 | 1 | 1 | 8 | >64 | >64 | >64 | 1 | 4 | 4 | 0.5 | >64 | >64 | –
C[C@@H](O)[C@H]1C(=O)N2C(C(=O)O)=C(S[C@@H]3CN[C@H](C(=O)N(C)C)C3)[C@H](C)[C@H]12 [Meropenem] | 0.03 | 0.06 | – | – | – | – | 0.015 | 0.12 | – | 0.015 | ≦0.04 | 0.12 | 0.06 | 0.03 | >4 | 0.25 | >4 | 1 | >4 | 0.03 | –
CN[C@H](CC(C)C)C(=O)N[C@H]1C(=O)N[C@@H](CC(N)=O)C(=O)N[C@H]2C(=O)N[C@H]3C(=O)N[C@H](C(=O)N[C@H](C(=O)O)c4cc(O)cc(O)c4-c4cc3ccc4O)[C@H](O)c3ccc(c(Cl)c3)Oc3cc2cc(c3O[C@@H]2O[C@H](CO)[C@@H](O)[C@H](O)[C@H]2O[C@H]2C[C@](C)(N)[C@H](O)[C@H](C)O2)Oc2ccc(cc2Cl)[C@H]1O [Vancomycin] | 64 | >64 | 0.5 | 1 | >64 | >64 | 0.5 | 1 | 2 | 0.5 | >64 | >64 | >64 | >64 | 8 | 1 | 1 | 0.25 | >64 | >64 | antibacterial activity (dilution susceptibility test) (S. pyogenes 723): 0.5; antibacterial activity (dilution susceptibility test) (E. faecalis 846): >64; antibacterial activity (dilution susceptibility test) (S. aureus 2144): 1; antibacterial activity (dilution susceptibility test) (S. pneumoniae 933): 0.5; antibacterial activity (dilution susceptibility test) (S. aureus 2018): 8; antibacterial activity (dilution susceptibility test) (S. epidermidis 1452): 2; antibacterial activity (dilution susceptibility test) (S. agalactiae 2033): 0.5; antibacterial activity (dilution susceptibility test) (S. saprophyticus 495): 1; antibacterial activity (dilution susceptibility test) (S. epidermidis 1597): 2
